From PubChem BioAssay (NCI)
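Protocol summary: plate cells (96-well), add compound at 5 concentrations, incubate 48 h, interpolate endpoints linearly. TGI: concentration producing complete growth inhibition.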

Assays:
Assay in all cases: growth of human tumour cells (NCI), 48 h
M14 melanoma = system: M14 melanoma
A549 NSCLC = system: A549 NSCLC
KM12 colon = system: KM12 colon
U251 CNS = system: U251 CNS
NCI-H522 lung = system: NCI-H522 lung
MOLT-4 leukemia = system: MOLT-4 leukemia
OVCAR-3 ovarian = system: OVCAR-3 ovarian
SNB-75 CNS = system: SNB-75 CNS
IGROV1 ovarian = system: IGROV1 ovarian
HOP-62 NSCLC = system: HOP-62 NSCLC
LXFL 529 NSCLC = system: LXFL 529 NSCLC
SR leukemia = system: SR leukemia
HOP-92 NSCLC = system: HOP-92 NSCLC
786-0 renal = system: 786-0 renal
CAKI-1 renal = system: CAKI-1 renal
SN12C renal = system: SN12C renal
HOP-18 NSCLC = system: HOP-18 NSCLC
SK-MEL-2 melanoma = system: SK-MEL-2 melanoma
SK-OV-3 ovarian = system: SK-OV-3 ovarian
NCI-H23 lung = system: NCI-H23 lung
SF-268 CNS = system: SF-268 CNS
DU-145 prostate = system: DU-145 prostate
OVCAR-4 ovarian = system: OVCAR-4 ovarian
SW-620 colon = system: SW-620 colon
SNB-19 CNS = system: SNB-19 CNS
COLO 205 colon = system: COLO 205 colon
NCI-H226 lung = system: NCI-H226 lung
TK-10 renal = system: TK-10 renal
DLD-1 colon = system: DLD-1 colon
PC-3 prostate = system: PC-3 prostate
HT29 colon = system: HT29 colon
A498 renal = system: A498 renal
OVCAR-5 ovarian = system: OVCAR-5 ovarian
BT-549 breast = system: BT-549 breast
RPMI-8226 leukemia = system: RPMI-8226 leukemia
DMS 114 small cell lung = system: DMS 114 small cell lung
M19-MEL melanoma = system: M19-MEL melanoma
SNB-78 CNS = system: SNB-78 CNS
DMS 273 small cell lung = system: DMS 273 small cell lung
HS 578T breast = system: HS 578T breast
CCRF-CEM leukemia = system: CCRF-CEM leukemia
ACHN renal = system: ACHN renal
NCI/ADR-RES ovarian = system: NCI/ADR-RES ovarian
NCI-H460 lung = system: NCI-H460 lung
MALME-3M melanoma = system: MALME-3M melanoma
K-562 leukemia = system: K-562 leukemia
RXF 393 renal = system: RXF 393 renal
UO-31 renal = system: UO-31 renal
LOX IMVI melanoma = system: LOX IMVI melanoma
MDA-MB-435 = system: MDA-MB-435
MDA-N = system: MDA-N
SF-539 CNS = system: SF-539 CNS
UACC-62 melanoma = system: UACC-62 melanoma
HCT-116 colon = system: HCT-116 colon
KM20L2 colon = system: KM20L2 colon
SK-MEL-5 melanoma = system: SK-MEL-5 melanoma
T-47D breast = system: T-47D breast
SF-295 CNS = system: SF-295 CNS
SK-MEL-28 melanoma = system: SK-MEL-28 melanoma
HCT-15 colon = system: HCT-15 colon
EKVX NSCLC = system: EKVX NSCLC
HCC-2998 colon = system: HCC-2998 colon
UACC-257 melanoma = system: UACC-257 melanoma
MDA-MB-231 breast = system: MDA-MB-231 breast
OVCAR-8 ovarian = system: OVCAR-8 ovarian
HL-60(TB) leukemia = system: HL-60(TB) leukemia
MCF7 breast = system: MCF7 breast

`C=C(c1ccccc1)[C@@]1(O)CC[C@@H]1N(CC#N)Cc1ccccc1` was tested, and the TGI (M14 melanoma) was 32.6 µM, the TGI (A549 NSCLC) was > 73.5 µM and the TGI (KM12 colon) was > 71.4 µM. For the same compound, the TGI (U251 CNS) was > 100 µM, the TGI (NCI-H522 lung) was 47.8 µM and the TGI (MOLT-4 leukemia) was 69.2 µM. The TGI (OVCAR-3 ovarian) was 17.1 µM, the TGI (SNB-75 CNS) was > 96.5 µM and the TGI (IGROV1 ovarian) was 72.6 µM. For the same compound, the TGI (HOP-62 NSCLC) was > 100 µM, the TGI (LXFL 529 NSCLC) was 29.5 µM and the TGI (SR leukemia) was > 69.9 µM. The TGI (HOP-92 NSCLC) was 34.9 µM, the TGI (786-0 renal) was 35.4 µM and the TGI (CAKI-1 renal) was 45.7 µM. For the same compound, the TGI (SN12C renal) was 46.8 µM, the TGI (HOP-18 NSCLC) was 28 µM and the TGI (SK-MEL-2 melanoma) was 53.1 µM. The TGI (SK-OV-3 ovarian) was > 100 µM, the TGI (NCI-H23 lung) was 68 µM and the TGI (SF-268 CNS) was > 83.9 µM. For the same compound, the TGI (DU-145 prostate) was > 100 µM, the TGI (OVCAR-4 ovarian) was 29.1 µM and the TGI (SW-620 colon) was 34.8 µM. For the same compound, the TGI (SNB-19 CNS) was > 63.8 µM, the TGI (COLO 205 colon) was 30.4 µM and the TGI (NCI-H226 lung) was > 100 µM. It also gave a TGI (TK-10 renal) of 35.5 µM, a TGI (DLD-1 colon) of 36.4 µM and a TGI (PC-3 prostate) of 64.3 µM. The TGI (HT29 colon) was 40 µM, the TGI (A498 renal) was > 100 µM and the TGI (OVCAR-5 ovarian) was > 100 µM. For the same compound, the TGI (BT-549 breast) was 37.1 µM, the TGI (RPMI-8226 leukemia) was > 67 µM and the TGI (DMS 114 small cell lung) was 34.3 µM. The TGI (M19-MEL melanoma) was 57.1 µM, the TGI (SNB-78 CNS) was > 85.2 µM and the TGI (DMS 273 small cell lung) was 39.7 µM. For the same compound, the TGI (HS 578T breast) was 65 µM, the TGI (CCRF-CEM leukemia) was 62.5 µM and the TGI (ACHN renal) was 41.4 µM. The TGI (NCI/ADR-RES ovarian) was 43.8 µM, the TGI (NCI-H460 lung) was > 100 µM and the TGI (MALME-3M melanoma) was 27.5 µM. For the same compound, the TGI (K-562 leukemia) was > 74.3 µM, the TGI (RXF 393 renal) was 34.6 µM and the TGI (UO-31 renal) was 67.4 µM. It also gave a TGI (LOX IMVI melanoma) of 34.6 µM, a TGI (MDA-MB-435) of 47.5 µM and a TGI (MDA-N) of 40 µM. It also gave a TGI (SF-539 CNS) of 63.1 µM, a TGI (UACC-62 melanoma) of 32.1 µM and a TGI (HCT-116 colon) of 30.3 µM. The TGI (KM20L2 colon) was > 100 µM, the TGI (SK-MEL-5 melanoma) was 31.8 µM and the TGI (T-47D breast) was 38.2 µM. The TGI (SF-295 CNS) was > 100 µM, the TGI (SK-MEL-28 melanoma) was 28.8 µM and the TGI (HCT-15 colon) was 34.6 µM. For the same compound, the TGI (EKVX NSCLC) was > 88.9 µM, the TGI (HCC-2998 colon) was 44.3 µM and the TGI (UACC-257 melanoma) was 34 µM. For the same compound, the TGI (MDA-MB-231 breast) was 27.5 µM, the TGI (OVCAR-8 ovarian) was 52.3 µM and the TGI (HL-60(TB) leukemia) was > 62.1 µM.

With `CCCCCCCCCCNC(=O)CCC(NC(=O)c1ccc(N(C)Cc2cnc3nc(N)nc(N)c3n2)cc1)C(=O)NCCCCCCCCCC` (stereo not given) the TGI (M14 melanoma) was 57.7 µM, the TGI (A549 NSCLC) was > 100 µM and the TGI (KM12 colon) was 16.2 µM. For the same compound, the TGI (U251 CNS) was 14.1 µM, the TGI (NCI-H522 lung) was 16.6 µM and the TGI (MOLT-4 leukemia) was 30.5 µM. For the same compound, the TGI (OVCAR-3 ovarian) was 26.8 µM, the TGI (SNB-75 CNS) was 32.1 µM and the TGI (IGROV1 ovarian) was 20.1 µM. The TGI (HOP-62 NSCLC) was > 95.7 µM, the TGI (SR leukemia) was > 24.5 µM and the TGI (HOP-92 NSCLC) was 27.1 µM. For the same compound, the TGI (786-0 renal) was 13.5 µM, the TGI (CAKI-1 renal) was > 100 µM and the TGI (SN12C renal) was > 57.2 µM. The TGI (SK-MEL-2 melanoma) was 30.4 µM, the TGI (SK-OV-3 ovarian) was 65.3 µM and the TGI (NCI-H23 lung) was 54.4 µM. For the same compound, the TGI (SF-268 CNS) was 40.2 µM, the TGI (DU-145 prostate) was > 70.2 µM and the TGI (OVCAR-4 ovarian) was > 45.4 µM. It also gave a TGI (SW-620 colon) of 13.5 µM, a TGI (SNB-19 CNS) of 31.7 µM and a TGI (COLO 205 colon) of 15.2 µM. The TGI (NCI-H226 lung) was 59.3 µM, the TGI (TK-10 renal) was > 92.7 µM and the TGI (PC-3 prostate) was 37.8 µM. For the same compound, the TGI (HT29 colon) was 35.2 µM, the TGI (A498 renal) was 73.5 µM and the TGI (OVCAR-5 ovarian) was 66.1 µM. For the same compound, the TGI (BT-549 breast) was 26.3 µM, the TGI (RPMI-8226 leukemia) was > 70.4 µM and the TGI (HS 578T breast) was 20.8 µM. For the same compound, the TGI (CCRF-CEM leukemia) was 5.9 µM, the TGI (ACHN renal) was > 100 µM and the TGI (NCI/ADR-RES ovarian) was > 100 µM. The TGI (NCI-H460 lung) was 13.1 µM, the TGI (MCF7 breast) was 15.3 µM and the TGI (MALME-3M melanoma) was 37.7 µM. For the same compound, the TGI (K-562 leukemia) was > 32.2 µM, the TGI (RXF 393 renal) was 19.3 µM and the TGI (UO-31 renal) was > 100 µM. It also gave a TGI (LOX IMVI melanoma) of 5.81 µM, a TGI (MDA-MB-435) of 15.4 µM and a TGI (MDA-N) of 21.9 µM. For the same compound, the TGI (SF-539 CNS) was 15.3 µM, the TGI (UACC-62 melanoma) was 49.5 µM and the TGI (HCT-116 colon) was 14 µM. For the same compound, the TGI (SK-MEL-5 melanoma) was 12.6 µM, the TGI (T-47D breast) was 40.3 µM and the TGI (SF-295 CNS) was > 100 µM. The TGI (SK-MEL-28 melanoma) was 23.6 µM, the TGI (HCT-15 colon) was > 100 µM and the TGI (EKVX NSCLC) was > 78.3 µM. For the same compound, the TGI (HCC-2998 colon) was 48.6 µM, the TGI (UACC-257 melanoma) was > 60.1 µM and the TGI (MDA-MB-231 breast) was 11.3 µM. For the same compound, the TGI (OVCAR-8 ovarian) was 25.5 µM and the TGI (HL-60(TB) leukemia) was > 25.3 µM.
